Data: the NIST ThermoML archive (doi:10.1007/s10765-008-0444-7)

Tests used:
[1] = xn = mol fraction of the nth substance listed; details: 101 kPa, Liquid; for viscosity: Capillary tube (Ostwald / Ubbelohde) method; for mass density: Pycnometric method
[2] = 101.3 kPa, Liquid; for viscosity: Capillary tube (Ostwald / Ubbelohde) method; for mass density: Pycnometric method

Clc1ccccc1 [chlorobenzene] + CO
[1]
Details	mass density, 293 K [kg/m3]	mass density, 303 K [kg/m3]	mass density, 313 K [kg/m3]	viscosity, 293 K [mPa·s]	viscosity, 303 K [mPa·s]	viscosity, 313 K [mPa·s]
x2 = 0	1105.8	1095	1082	0.8432	0.721	0.6247
x2 = 0.2808	1066.5	1056	1044	0.8312	0.7121	0.6157
x2 = 0.4676	1029.2	1019	1007	0.8209	0.6924	0.6041
x2 = 0.601	993.9	983.7	972.5	0.8018	0.6821	0.5832
x2 = 0.7009	960.5	950.4	939.4	0.7699	0.6572	0.5569
x2 = 0.7783	928.8	918.9	908.1	0.7256	0.6093	0.5296
x2 = 0.8405	898.5	888.8	878.3	0.692	0.5828	0.51
x2 = 0.8913	869.7	860.1	849.9	0.6766	0.5672	0.4961
x2 = 0.9335	842.3	832.9	822.9	0.6424	0.5401	0.4701
x2 = 0.9693	816.2	806.8	797.1	0.6194	0.528	0.4591

Clc1ccccc1 [chlorobenzene]
[2]
Details	mass density [kg/m3]	viscosity [mPa·s]
293 K	1105.8	0.8432
303 K	1095	0.721
313 K	1082	0.6247

Brc1ccccc1 [bromobenzene]
[2]
Details	mass density [kg/m3]	viscosity [mPa·s]
293 K	1497	1.164
303 K	1483	0.9844
313 K	1467	0.8786

CO [methanol] + Brc1ccccc1
[1], x1 = 1
Details	mass density [kg/m3]	viscosity [mPa·s]
293 K	791.1	0.591
303 K	781.9	0.518
313 K	772.4	0.45

CO [methanol] + Clc1ccccc1
[1], x1 = 1
Details	mass density [kg/m3]	viscosity [mPa·s]
293 K	791.1	0.591
303 K	781.9	0.518
313 K	772.4	0.45

CO [methanol]
[2]
Details	mass density [kg/m3]	viscosity [mPa·s]
293 K	791.1	0.591
303 K	781.9	0.518
313 K	772.4	0.45

Brc1ccccc1 [bromobenzene] + CO
[1]
Details	mass density, 293 K [kg/m3]	mass density, 303 K [kg/m3]	mass density, 313 K [kg/m3]	viscosity, 293 K [mPa·s]	viscosity, 303 K [mPa·s]	viscosity, 313 K [mPa·s]
x2 = 0	1497	1483	1467	1.164	0.9844	0.8786
x2 = 0.3528	1381	1367	1352	1.124	0.9306	0.8142
x2 = 0.5504	1280	1267	1253	1.008	0.8356	0.7399
x2 = 0.6775	1192	1179	1166	0.8873	0.742	0.6444
x2 = 0.7657	1114	1102	1089	0.8144	0.6962	0.6019
x2 = 0.8305	1045	1033	1021	0.7619	0.6467	0.5686
x2 = 0.8802	983	972.1	960.7	0.7235	0.617	0.5451
x2 = 0.9195	927.6	917.2	906.4	0.686	0.5891	0.513
x2 = 0.9552	871.4	861.5	851.1	0.657	0.5651	0.49
x2 = 0.9778	832.3	822.8	812.9	0.6312	0.5344	0.4773
